Counter-ions that a name gives are not always drawn.
Tests used:
[1] = target: T1, Recombinant human c-Cbl (aa 47-435) (Homo sapiens, UniProt P22681); experiment: c-Cbl Biochemical Assay (TR-FRET); details: hc-Cbl Biochemical Assay (TR-FRET); read-out: TR-FRET hcCbl IC50
T1 sequence (P22681 47-435): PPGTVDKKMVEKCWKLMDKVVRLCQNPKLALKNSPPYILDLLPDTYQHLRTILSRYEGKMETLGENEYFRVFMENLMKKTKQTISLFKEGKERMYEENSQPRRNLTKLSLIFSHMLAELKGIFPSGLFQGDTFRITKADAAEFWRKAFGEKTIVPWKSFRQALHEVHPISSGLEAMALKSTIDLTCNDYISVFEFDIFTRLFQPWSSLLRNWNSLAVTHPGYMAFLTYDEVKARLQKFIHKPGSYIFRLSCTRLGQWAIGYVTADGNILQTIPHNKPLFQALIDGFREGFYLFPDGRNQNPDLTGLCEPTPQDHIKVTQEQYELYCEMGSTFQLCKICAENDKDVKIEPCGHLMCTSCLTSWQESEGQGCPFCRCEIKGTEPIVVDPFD

[2] = target: Recombinant human Cbl-b (aa 36-427) (Homo sapiens, UniProt Q13191); experiment: Cbl-b Biochemical Assay (TR-FRET); details: read-out: TR-FRET hCbl-b IC50
Chain of Recombinant human Cbl-b (aa 36-427) (Q13191 36-427): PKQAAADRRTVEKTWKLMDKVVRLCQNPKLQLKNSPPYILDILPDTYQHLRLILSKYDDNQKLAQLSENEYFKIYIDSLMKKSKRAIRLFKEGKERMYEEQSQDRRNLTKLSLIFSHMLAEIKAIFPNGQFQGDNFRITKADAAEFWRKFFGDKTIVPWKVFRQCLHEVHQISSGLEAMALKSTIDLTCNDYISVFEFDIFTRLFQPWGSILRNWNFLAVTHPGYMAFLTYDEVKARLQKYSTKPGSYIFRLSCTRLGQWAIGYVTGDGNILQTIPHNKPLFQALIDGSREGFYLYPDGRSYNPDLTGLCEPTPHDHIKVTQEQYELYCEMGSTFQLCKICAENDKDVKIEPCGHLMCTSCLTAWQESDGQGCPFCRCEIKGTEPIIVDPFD

[3] = test system: Jurkat (clone E6-1) cells with NFAT luciferase reporter; experiment: Jurkat reporter assay (NFAT Luciferase); assay type: cell-based; details: Homo sapiens; Jurkat NFAT luciferase reporter cells, anti-CD3 stimulation, 6 hr; read-out: Jurkat NFAT EC50

| IC50 [1] | IC50 [2] | EC50 [3] | Compound |
| --- | --- | --- | --- |
| < 200 nM | < 200 nM | < 200 nM | Cn1cnnc1-c1cc(C#N)ccc1-c1cc(-c2nc3cc(CNCC4CCC4)cc(F)c3o2)nc(C2CC2)c1 [AHE-2, 4-[2-(5-{[(cyclobutylmethyl)amino]methyl}-7-fluoro-1,3-benzoxazol-2-yl)-6-cyclopropylpyridin-4-yl]-3-(4-methyl-1,2,4-triazol-3-yl) benzonitrile] |
| 1000 to 10000 nM | < 200 nM | 1000 to 10000 nM | Cn1cnnc1-c1cc(F)ccc1-c1cccc(-c2nc3cc(CO)cc(C(F)(F)F)c3[nH]2)c1 [BJ-1, (2-(4′-Fluoro-2′-(4-methyl-4H-1,2,4-triazol-3-yl)-[1,1′-biphenyl]-3-yl)-7-(trifluoromethyl)-1H-benzo[d]imidazol-5-yl)methanol] |
| 1000 to 10000 nM | < 200 nM | 200 to 1000 nM | Cn1cnnc1-c1cc(F)ccc1-c1cccc(-c2nc3cc(CNCC4(O)CC4)cc(C(F)(F)F)c3[nH]2)c1 [BV-1, 1-((((2-(4′-Fluoro-2′-(4-methyl-4H-1,2,4-triazol-3-yl)-[1,1′-biphenyl]-3-yl)-7-(trifluoromethyl)-1H-benzo[d]imidazol-5-yl)methyl)amino)methyl)cyclopropan-1-ol] |
| < 200 nM | < 200 nM | < 200 nM | CC(NCC1(O)CCC1)c1cc(C(F)(F)F)c2oc(-c3cccc(-c4ccc(F)cc4-c4nncn4C)c3)nc2c1 (stereo not drawn) [EF-1, 1-(((1-(2-(4′-Fluoro-2′-(4-methyl-4H-1,2,4-triazol-3-yl)-[1,1′-biphenyl]-3-yl)-7-(trifluoromethyl)benzo[d]oxazol-5-yl)ethyl)amino)methyl)cyclobutan-1-ol, formate] |
| 1000 to 10000 nM | < 200 nM | 200 to 1000 nM | COCCNCc1cc(C(F)(F)F)c2oc(-c3cccc(-c4ccc(F)cc4-c4nncn4C)c3)nc2c1 [AA-2, N-((2-(4′-Fluoro-2′-(4-methyl-4H-1,2,4-triazol-3-yl)-[1,1′-biphenyl]-3-yl)-7-(trifluoromethyl)benzo[d]oxazol-5-yl)methyl)-2-methoxyethan-1-amine] |
| < 200 nM | < 200 nM | < 200 nM | Cn1cnnc1-c1cc(F)ccc1-c1cccc(-c2nc3cc(CNC[C@H](O)C4CC4)cc(C(F)(F)F)c3o2)c1 (single isomer, unassigned) [DT-2] |
| < 200 nM | < 200 nM | < 200 nM | Cn1cnnc1-c1cc(F)ccc1-c1cccc(-c2nc3cc(CN[C@H]4CC[C@@H]4O)cc(C(F)(F)F)c3o2)c1 (single isomer, unassigned) [ADG-1] |
| < 200 nM | < 200 nM | 200 to 1000 nM | CN(Cc1cc2nc(-c3cccc(-c4ccc(F)cc4-c4nncn4C)c3)oc2c(F)c1F)[C@@H]1CCC[C@@H]1O [JJ-3, (1S,2R)-2-(((6,7-Difluoro-2-(4′-fluoro-2′-(4-methyl-4H-1,2,4-triazol-3-yl)-[1,1′-biphenyl]-3-yl)benzo[d]oxazol-5-yl)methyl)(methyl)amino)cyclopentan-1-ol] |
| 200 to 1000 nM | 200 to 1000 nM | 200 to 1000 nM | CO[C@H](C)[C@@H](C)NCc1cc(C)c2oc(-c3cc(-c4ccc(F)cc4-c4nncn4C)cc(C4CC4)n3)nc2c1 [AFZ-2, [(2-{6-Cyclopropyl-4-[4-fluoro-2-(4-methyl-1,2,4-triazol-3-yl)phenyl]pyridin-2-yl}-7-methyl-1,3-benzoxazol-5-yl)methyl][(2R,3R)-3-methoxybutan-2-yl]amine] |
| 1000 to 10000 nM | < 200 nM | 1000 to 10000 nM | Cn1cnnc1-c1ccccc1-c1cccc(-c2nc3cc(CN[C@H]4CCC[C@@H]4O)cc(C(F)(F)F)c3o2)c1 [Example P-6, (1S,2S)-2-(((2-(2′-(4-Methyl-4H-1,2,4-triazol-3-yl)-[1,1′-biphenyl]-3-yl)-7-(trifluoromethyl)benzo[d]oxazol-5-yl)methyl)amino)cyclopentan-1-ol] |
| < 200 nM | < 200 nM | < 200 nM | CN(Cc1cc(C(F)(F)F)c2oc(-c3cccc(-c4ccc(F)cc4-c4nncn4C)c3)nc2c1)CC1(O)CCC1 [IA-1, 1-((((2-(4′-Fluoro-2′-(4-methyl-4H-1,2,4-triazol-3-yl)-[1,1′-biphenyl]-3-yl)-7-(trifluoromethyl)benzo[d]oxazol-5-yl)methyl)(methyl)amino)methyl)cyclobutan-1-ol] |
| < 200 nM | < 200 nM | 200 to 1000 nM | CC(=O)NCCNCc1cc(C(F)(F)F)c2oc(-c3cccc(-c4ccc(F)cc4-c4nncn4C)c3)nc2c1 [HD-2, N-(2-(((2-(4′-Fluoro-2′-(4-methyl-4H-1,2,4-triazol-3-yl)-[1,1′-biphenyl]-3-yl)-7-(trifluoromethyl)benzo[d]oxazol-5-yl)methyl)amino)ethyl)acetamide] |
| < 200 nM | < 200 nM | < 200 nM | Cn1cnnc1-c1cc(F)ccc1-c1cccc(-c2nc3cc(CNCC4CCCC4)cc(C(F)(F)F)c3o2)c1 [DV-2, 1-Cyclopentyl-N-((2-(4′-fluoro-2′-(4-methyl-4H-1,2,4-triazol-3-yl)-[1,1′-biphenyl]-3-yl)-7-(trifluoromethyl)benzo[d]oxazol-5-yl)methyl)methanamine] |
| 200 to 1000 nM | < 200 nM | 200 to 1000 nM | CCOCCNCc1cc(OC)c2oc(-c3cccc(-c4ccc(F)cc4-c4nncn4C)c3)nc2c1 [GD-1, 2-Ethoxy-N-((2-(4′-fluoro-2′-(4-methyl-4H-1,2,4-triazol-3-yl)-[1,1′-biphenyl]-3-yl)-7-methoxybenzo[d]oxazol-5-yl)methyl)ethan-1-amine] |
| < 200 nM | < 200 nM | 200 to 1000 nM | COCC1(CNCc2cc(C(F)(F)F)c3oc(-c4cccc(-c5ccc(F)cc5-c5nncn5C)c4)nc3c2)CCCC1 [FC-2, 1-(2-(4′-Fluoro-2′-(4-methyl-4H-1,2,4-triazol-3-yl)-[1,1′-biphenyl]-3-yl)-7-(trifluoromethyl)benzo[d]oxazol-5-yl)-N-((1-(methoxymethyl)cyclopentyl)methyl)methanamine] |
| < 200 nM | < 200 nM | < 200 nM | Cn1cnnc1-c1cc(F)ccc1-c1cc(-c2nc3cc(CNCC(C)(C)O)ccc3o2)nc(C2CC2)c1 [AFD-1, 1-{[(2-{6-Cyclopropyl-4-[4-fluoro-2-(4-methyl-1,2,4-triazol-3-yl)phenyl]pyridin-2-yl}-1,3-benzoxazol-5-yl)methyl]amino}-2-methylpropan-2-ol] |
| 10000 to 50000 nM | 200 to 1000 nM | 1000 to 10000 nM | C[C@H](Cc1nncn1C)c1cccc(-c2nc3ccc(Br)c(C(F)(F)F)c3[nH]2)c1 [AV-9, (R)-6-Bromo-2-(3-(1-(4-methyl-4H-1,2,4-triazol-3-yl)propan-2-yl)phenyl)-7-(trifluoromethyl)-1H-benzo[d]imidazole] |
| < 200 nM | < 200 nM | < 200 nM | Cn1cnnc1-c1cc(F)ccc1-c1cccc(-c2nc3cc(CNCC4(O)CCC4)cc(C4CC4)c3o2)c1 [JG-1, 1-((((7-Cyclopropyl-2-(4′-fluoro-2′-(4-methyl-4H-1,2,4-triazol-3-yl)-[1,1′-biphenyl]-3-yl)benzo[d]oxazol-5-yl)methyl)amino)methyl)cyclobutan-1-ol] |

Reference: patent publication US20250163038A1, “CBL-B MODULATORS AND USES THEREOF” (Nimbus Clio, Inc., priority 2021, published 2025)
